Patent US20230295197A1, “STAT5 and STAT6 Degraders and Uses Thereof” (REGENTS OF THE UNIVERSITY OF MICHICAN, priority 2022, published 2023)
Read-outs that look alike come from different tables or passages of the source.

Target: T1, STAT6 (Homo sapiens, UniProt P42226)
T1 construct: endogenous in cells; host or cells: MOLM-16, KU-812, SKNO1, MB231, L1236
T1 sequence (P42226 1-847): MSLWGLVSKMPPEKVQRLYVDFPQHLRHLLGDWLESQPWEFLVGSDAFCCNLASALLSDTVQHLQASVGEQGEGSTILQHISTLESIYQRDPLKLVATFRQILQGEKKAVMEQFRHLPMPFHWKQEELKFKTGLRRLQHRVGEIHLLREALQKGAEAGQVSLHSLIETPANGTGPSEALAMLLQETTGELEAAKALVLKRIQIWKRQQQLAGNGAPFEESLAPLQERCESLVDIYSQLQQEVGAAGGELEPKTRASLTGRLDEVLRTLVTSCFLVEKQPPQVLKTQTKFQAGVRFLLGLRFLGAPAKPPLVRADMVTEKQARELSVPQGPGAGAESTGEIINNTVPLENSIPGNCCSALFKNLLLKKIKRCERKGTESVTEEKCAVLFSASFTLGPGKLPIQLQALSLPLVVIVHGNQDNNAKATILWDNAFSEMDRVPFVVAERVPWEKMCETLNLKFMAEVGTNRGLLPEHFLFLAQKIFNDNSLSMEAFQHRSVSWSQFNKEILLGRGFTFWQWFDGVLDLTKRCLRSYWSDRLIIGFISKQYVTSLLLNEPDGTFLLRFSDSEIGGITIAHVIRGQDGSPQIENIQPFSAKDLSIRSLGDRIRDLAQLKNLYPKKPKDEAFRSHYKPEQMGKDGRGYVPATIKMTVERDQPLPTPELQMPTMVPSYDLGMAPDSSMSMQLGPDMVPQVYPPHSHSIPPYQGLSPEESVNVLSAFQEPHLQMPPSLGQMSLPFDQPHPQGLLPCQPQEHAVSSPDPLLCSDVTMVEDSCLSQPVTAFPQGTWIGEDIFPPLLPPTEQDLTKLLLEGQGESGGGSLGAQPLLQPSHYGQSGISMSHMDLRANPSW
Assay: Immunoblotting (Western blot) analysis of STAT6 degradation efficiency of degraders in treated cells
Format: cell-based
Outline: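 Protein levels of STAT5 and STAT6 were assessed in cells cultured at 37 °C in 10% FBS medium after compound exposure, by quantitative fluorescent Western blotting normalised to equal loading and referenced to GAPDH.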

[1] = MOLM-16 cells, class symbols, read-out: DC50 S6 MOLM-16
[2] = L1236 cells, read-out: DC50 S6 L1236

Cc1cc([C@H](C(=O)N2C[C@H](O)C[C@H]2C(=O)N[C@@H](CC(=O)NCCCCCCCCNC(=O)CO[C@@H]2C[C@@H](C(=O)N(C)c3ccc(Br)cc3)N(C(=O)[C@@H](NC(=O)c3cc4cc(C(F)(F)P(=O)(O)O)ccc4s3)C(C)(C)C)C2)c2ccc(-c3scnc3C)cc2)C(C)C)on1 [Compound 423, ((2-(((S)-1-((2S,4R)-2-((4-bromophenyl)(methyl)carbamoyl)-4-(2-((8-((S)-3-((2S,4R)-4-hydroxy-1-((R)-3-methyl-2-(3-methylisoxazol-5-yl)butanoyl)pyrrolidine-2-carboxamido)-3-(4-(4-methylthiazol-5-yl)phenyl)propanamido)octyl)amino)-2-oxoethoxy)pyrrolidin-1-yl)-3,3-dimethyl-1-oxobutan-2-yl)carbamoyl)benzo[b]thiophen-5-yl)difluoromethyl)phosphonic acid]
DC50 [1]: > 10 µM

Cc1ncsc1-c1ccc([C@H](C)NC(=O)[C@@H]2C[C@@H](O)CN2C(=O)[C@@H](NC(=O)CCCCCCNC(=O)CO[C@H]2C[C@@H](C(=O)N3CCC[C@H](c4ccccc4)C3)N(C(=O)[C@@H](NC(=O)c3cc4cc(C(F)(F)P(=O)(O)O)ccc4s3)C(C)(C)C)C2)C(C)(C)C)cc1 [Compound 439, (difluoro(2-(((S)-1-((2S,4S)-4-(2-((7-(((S)-1-((2S,4R)-4-hydroxy-2-(((S)-1-(4-(4-methylthiazol-5-yl)phenyl)ethyl)carbamoyl)pyrrolidin-1-yl)-3,3-dimethyl-1-oxobutan-2-yl)amino)-7-oxoheptyl)amino)-2-oxoethoxy)-2-((R)-3-phenylpiperidine-1-carbonyl)pyrrolidin-1-yl)-3,3-dimethyl-1-oxobutan-2-yl)carbamoyl)benzo[b]thiophen-5-yl)methyl)phosphonic acid]
DC50 [2]: > 10 µM
DC50 [1]: > 10 µM

CC(C)(C)[C@H](NC(=O)c1cc2cc(C(F)(F)P(=O)(O)O)ccc2s1)C(=O)N1CCN(C(=O)CC(=O)NCCC#Cc2ccc3c(c2)C(=O)N(C2CCC(=O)NC2=O)C3=O)C[C@H]1C(=O)N1CCC[C@H](c2ccccc2)C1 (stereo partly drawn) [Compound 524, ((2-(((2S)-1-((2S)-4-(3-((4-(2-(2,6-dioxopiperidin-3-yl)-1,3-dioxoisoindolin-5-yl)but-3-yn-1-yl)amino)-3-oxopropanoyl)-2-((R)-3-phenylpiperidine-1-carbonyl)piperazin-1-yl)-3,3-dimethyl-1-oxobutan-2-yl)carbamoyl)benzo[b]thiophen-5-yl)difluoromethyl)phosphonic acid]
DC50 [1]: > 10 µM

CC(C)(C)[C@H](NC(=O)c1cc2cc(C(F)(F)P(=O)(O)O)ccc2s1)C(=O)N1C[C@@H](OCCN2CCC(C#Cc3cccc4c3CN(C3CCC(=O)NC3=O)C4=O)CC2)C[C@H]1C(=O)N1CCO[C@H](c2ccccc2)C1 (stereo partly drawn) [Compound 604, ((2-(((2S)-1-((2S,4S)-4-(2-(4-((2-(2,6-dioxopiperidin-3-yl)-1-oxoisoindolin-4-yl)ethynyl)piperidin-1-yl)ethoxy)-2-((R)-2-phenylmorpholine-4-carbonyl)pyrrolidin-1-yl)-3,3-dimethyl-1-oxobutan-2-yl)carbamoyl)benzo[b]thiophen-5-yl)difluoromethyl)phosphonic acid]
DC50 (MOLM-16 cells, numeric bound, read-out: DC50 S6 MOLM-16): > 0.3 µM

CC(C)(C)[C@H](NC(=O)c1cc2cc(C(F)(F)P(=O)(O)O)ccc2s1)C(=O)N1Cc2cc(OCC(=O)NCCCCCCCCCC#Cc3ccc4c(c3)C(=O)N(C3CCC(=O)NC3=O)C4=O)ccc2C[C@H]1C(=O)N1CCO[C@H](c2ccccc2)C1 (stereo partly drawn) [Compound 548, ((2-(((2S)-1-((3S)-7-(2-((11-(2-(2,6-dioxopiperidin-3-yl)-1,3-dioxoisoindolin-5-yl)undec-10-yn-1-yl)amino)-2-oxoethoxy)-3-((R)-2-phenylmorpholine-4-carbonyl)-3,4-dihydroisoquinolin-2(1H)-yl)-3,3-dimethyl-1-oxobutan-2-yl)carbamoyl)benzo[b]thiophen-5-yl)difluoromethyl)phosphonic acid]
DC50 [1]: > 10 µM

Cc1ncsc1-c1ccc([C@H](C)NC(=O)[C@@H]2C[C@@H](O)CN2C(=O)[C@@H](NC(=O)CCCNC(=O)COc2ccc3c(c2)CN(C(=O)[C@@H](NC(=O)c2cc4cc(C(F)(F)P(=O)(O)O)ccc4s2)C(C)(C)C)[C@H](C(=O)N2CCO[C@H](c4ccccc4)C2)C3)C(C)(C)C)cc1 [Compound 463, (difluoro(2-(((S)-1-((S)-7-(2-((4-(((S)-1-((2S,4R)-4-hydroxy-2-(((S)-1-(4-(4-methylthiazol-5-yl)phenyl)ethyl)carbamoyl)pyrrolidin-1-yl)-3,3-dimethyl-1-oxobutan-2-yl)amino)-4-oxobutyl)amino)-2-oxoethoxy)-3-((R)-2-phenylmorpholine-4-carbonyl)-3,4-dihydroisoquinolin-2(1H)-yl)-3,3-dimethyl-1-oxobutan-2-yl)carbamoyl)benzo[b]thiophen-5-yl)methyl)phosphonic acid]
DC50 [2]: > 10 µM
DC50 [1]: > 10 µM

Cc1ncsc1-c1ccc([C@H](C)NC(=O)[C@@H]2C[C@@H](O)CN2C(=O)[C@@H](NC(=O)CCNC(=O)CC(=O)N2CCN(C(=O)[C@@H](NC(=O)c3cc4cc(C(F)(F)P(=O)(O)O)ccc4s3)C(C)(C)C)[C@H](C(=O)N3CCC[C@H](c4ccccc4)C3)C2)C(C)(C)C)cc1 [Compound 453, (difluoro(2-(((S)-1-((S)-4-(3-((3-(((S)-1-((2S,4R)-4-hydroxy-2-(((S)-1-(4-(4-methylthiazol-5-yl)phenyl)ethyl)carbamoyl)pyrrolidin-1-yl)-3,3-dimethyl-1-oxobutan-2-yl)amino)-3-oxopropyl)amino)-3-oxopropanoyl)-2-((R)-3-phenylpiperidine-1-carbonyl)piperazin-1-yl)-3,3-dimethyl-1-oxobutan-2-yl)carbamoyl)benzo[b]thiophen-5-yl)methyl)phosphonic acid]
DC50 [2]: > 10 µM
DC50 [1]: > 10 µM

Cc1ncsc1-c1ccc([C@H](C)NC(=O)[C@@H]2C[C@@H](O)CN2C(=O)[C@@H](NC(=O)CCCCCCCCCNC(=O)CO[C@H]2C[C@@H](C(=O)N3CCC[C@H](c4ccccc4)C3)N(C(=O)[C@@H](NC(=O)c3cc4cc(C(F)(F)P(=O)(O)O)ccc4s3)C(C)(C)C)C2)C(C)(C)C)cc1 [Compound 442, (difluoro(2-(((S)-1-((2S,4S)-4-(2-((10-(((S)-1-((2S,4R)-4-hydroxy-2-(((S)-1-(4-(4-methylthiazol-5-yl)phenyl)ethyl)carbamoyl)pyrrolidin-1-yl)-3,3-dimethyl-1-oxobutan-2-yl)amino)-10-oxodecyl)amino)-2-oxoethoxy)-2-((R)-3-phenylpiperidine-1-carbonyl)pyrrolidin-1-yl)-3,3-dimethyl-1-oxobutan-2-yl)carbamoyl)benzo[b]thiophen-5-yl)methyl)phosphonic acid]
DC50 [2]: > 10 µM
DC50 [1]: > 10 µM

CC(C)(C)[C@H](NC(=O)c1cc2cc(C(F)(F)P(=O)(O)O)ccc2s1)C(=O)N1Cc2cc(OCC(=O)NCC#Cc3cccc4c3C(=O)N(C3CCC(=O)NC3=O)C4=O)ccc2C[C@H]1C(=O)N1CCC[C@H](c2ccccc2)C1 (stereo partly drawn) [Compound 549, ((2-(((2S)-1-((3S)-7-(2-((3-(2-(2,6-dioxopiperidin-3-yl)-1,3-dioxoisoindolin-4-yl)prop-2-yn-1-yl)amino)-2-oxoethoxy)-3-((R)-3-phenylpiperidine-1-carbonyl)-3,4-dihydroisoquinolin-2(1H)-yl)-3,3-dimethyl-1-oxobutan-2-yl)carbamoyl)benzo[b]thiophen-5-yl)difluoromethyl)phosphonic acid]
DC50 [1]: > 10 µM

CC(C)(C)[C@H](NC(=O)c1cc2cc(C(F)(F)P(=O)(O)O)ccc2s1)C(=O)N1CCN(C(=O)CC(=O)NCCCCC#Cc2ccc3c(c2)C(=O)N(C2CCC(=O)NC2=O)C3=O)C[C@H]1C(=O)N1CCC[C@H](c2ccccc2)C1 (stereo partly drawn) [Compound 528, ((2-(((2S)-1-((2S)-4-(3-((6-(2-(2,6-dioxopiperidin-3-yl)-1,3-dioxoisoindolin-5-yl)hex-5-yn-1-yl)amino)-3-oxopropanoyl)-2-((R)-3-phenylpiperidine-1-carbonyl)piperazin-1-yl)-3,3-dimethyl-1-oxobutan-2-yl)carbamoyl)benzo[b]thiophen-5-yl)difluoromethyl)phosphonic acid]
DC50 [1]: > 10 µM
